Experimental data from patent US8580812B2, “Heteroaryl amide analogues as P2X7 antagonists” (H. Lundbeck A/S, priority 2007, dated 2013).

Target: T1, P2X7 (Homo sapiens, UniProt Q99572)
T1 construct: host or cells: SH-SY5Y
T1 sequence (Q99572 1-595): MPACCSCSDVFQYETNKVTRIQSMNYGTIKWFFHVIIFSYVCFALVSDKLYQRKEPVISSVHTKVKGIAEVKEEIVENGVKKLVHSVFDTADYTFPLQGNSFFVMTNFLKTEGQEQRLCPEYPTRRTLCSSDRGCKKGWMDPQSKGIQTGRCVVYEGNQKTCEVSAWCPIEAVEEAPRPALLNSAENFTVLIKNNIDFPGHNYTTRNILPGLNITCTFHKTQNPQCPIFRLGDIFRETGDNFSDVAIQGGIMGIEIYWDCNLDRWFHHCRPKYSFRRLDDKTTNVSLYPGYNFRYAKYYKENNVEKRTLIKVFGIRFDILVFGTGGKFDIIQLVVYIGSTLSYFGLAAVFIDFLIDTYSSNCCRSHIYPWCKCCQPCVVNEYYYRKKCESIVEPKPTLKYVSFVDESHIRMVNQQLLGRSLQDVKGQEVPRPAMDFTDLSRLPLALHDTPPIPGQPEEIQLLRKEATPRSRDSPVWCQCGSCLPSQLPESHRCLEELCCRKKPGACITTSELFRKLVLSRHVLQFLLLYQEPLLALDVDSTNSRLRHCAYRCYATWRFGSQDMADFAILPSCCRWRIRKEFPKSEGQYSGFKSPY
Experiment: High Throughput P2X7 Calcium Mobilization Assay (Example 4A), antagonist activity
Type: cell-based
Conditions: SH-SY5Y cells, 50% decrease in fluorescence response of cells exposed to 80 μM BzATP
Method: A. High Throughput P2X7 Calcium Mobilization Assay
SH-SY5Y cells, ATCC Number CRL-2266, (American Type Culture Collection, Manassas, Va.) are cultured under DMEM/High medium supplemented with 10% FBS, and 10 mM HEPES (Invitrogen Corp., Carlsbad, Calif.) in 5% CO2 and at 37° C. One day prior to the experiment, cells are plated at a density of 100,000 cells/well in a 96 well black/clear TC plate (Corning® Costar®, Sigma-Aldrich Co., St. Louis, Mo.). At the beginning of the experiment, the culture medium is removed and cells are incubated with 50 μL of 2.3 μM Fluo-4 AM dye (Invitrogen Corp.) in the assay solution (5 mM KCl, 9.6 mM NaH2PO4.H2O, 25 mM HEPES, 280 mM Sucrose, 5 mM Glucose, and 0.5 mM CaCl2; pH is adjusted to 7.4 with NaOH) for an hour at 37° C. After one hour dye incubation, wells are rinsed once with 50 μL assay solution, and are then incubated for an hour at room temperature with 100 μL assay solution containing the test compound. The final concentration of test compound generally ranges from 1 to 2500 nM; for positive control cells, no test compound is added. After the one hour incubation, plates are transferred to a FLIPR^TETRA instrument (Molecular Devices, Sunnyvale, Calif.) for calcium mobilization analysis.
For determination of antagonist activity, 50 μL of P2X7 agonist (2′(3′)-O-(4-benzoyl-benzoyl)adenosine 5′-triphosephate (BzATP; Sigma-Aldrich) in the assay solution is transferred using the FLIPR into the plate, such that the final agonist concentration is 80 μM (about EC50). In negative control cells, 50 μL of assay solution without agonist is added at this stage. The peak fluorescence signal over a 2 minute period is then measured.
First, the average maximum relative fluorescent unit (RFU) response from the negative control wells (no agonist) is subtracted from the maximum response detected for each of the other experimental wells. Second, average maximum RFU response is calculated for the positive control wells (agonist wells). Then, percent inhibition for each compound tested is calculated using the equation: Percent Inhibition=100−100×(Peak Signal in Test Cells/Peak Signal in Control Cells) The % inhibition data is plotted as a function of test compound concentration and test compound IC50 is determined using, for example, KALEIDAGRAPH software (Synergy Software, Reading, Pa.) best fit of the data to the equation: y=m1*(1/(1+(m2/m0)^m3)) where y is the percent inhibition, m0 is […], m1 is the maximum RFU, m2 corresponds to the test compound IC50 (the concentration required to provide a 50% decrease, relative to the response observed in the presence of agonist and without antagonist) and m3 is the Hill coefficient.

Row | IC50 [nM] | Compound
1 | ≤ 2000 | Cc1nc2c(c(=O)[nH]1)CN(C(=O)c1cc3c(C(=O)NCC45CC6CC(CC(C6)C4)C5)cccn3n1)CC2 [Compound 30, N-(adamantan-1-ylmethyl)-2-[(2-methyl-4-oxo-3,5,7,8-tetrahydropyrido[4,3-d]pyrimidin-6(4H)-yl)carbonyl]pyrazolo [1,5-a]pyridine-4-carboxamide]
2 | ≤ 2000 | CC(C)CC(CNC(=O)c1cccn2nc(C(=O)N3CCn4cncc4C3)cc12)c1ccc(C(F)(F)F)cc1 (stereo not shown) [Compound 88, 2-(5,6-dihydroimidazo[1,5-a]pyrazin-7(8H)-ylcarbonyl)-N-{4-methyl-2-[4-(trifluoromethyl)phenyl]pentyl}pyrazolo[1,5-a]pyridine-4-carboxamide]
3 | ≤ 2000 | CCOC(=O)CNC(=O)c1cc2c(C(=O)NCC34CC5CC(CC(C5)C3)C4)cccn2n1 [Compound 41, ethyl N-({4-[(adamantan-1-ylmethyl)carbamoyl]pyrazolo[1,5-a]pyridin-2-yl}carbonyl)glycinate]
4 | ≤ 2000 | CN(CCF)C(=O)Cc1cc2c(C(=O)NCC34CC5CC(CC(C5)C3)C4)cccn2n1 [Compound 77, N-(adamantan-1-ylmethyl)-2-{2-[(2-fluoroethyl)(methyl)amino]-2-oxoethyl}pyrazolo[1,5-a]pyridine-4-carboxamide]
5 | ≤ 2000 | O=C(NCC12CC3CC(CC(C3)C1)C2)c1cccn2nc(C(Cc3ccccc3)C(=O)O)cc12 (stereo not shown) [Compound 103, 2-{4-[(adamantan-1-ylmethyl)carbamoyl]pyrazolo[1,5-a]pyridin-2-yl}-3-phenylpropanoic acid]
6 | ≤ 2000 | O=C1CN(C(=O)c2cc3c(C(=O)NCC45CC6CC(CC(C6)C4)C5)cccn3n2)CCN1 [Compound 32, N-(adamantan-1-ylmethyl)-2-[(3-oxopiperazin-1-yl)carbonyl]pyrazolo [1,5-a]pyridine-4-carboxamide]
7 | ≤ 2000 | O=C(O)c1ccc(-c2cc3c(C(=O)NCC45CC6CC(CC(C6)C4)C5)cccn3c2)cc1 [Compound 108, 4-{8-[(adamantan-1-ylmethyl)carbamoyl]indolizin-2-yl}benzoic acid]
8 | ≤ 2000 | CN(CC(F)F)C(=O)Cc1cc2c(C(=O)NCC34CC5CC(CC(C5)C3)C4)cccn2n1 [Compound 78, N-(adamantan-1-ylmethyl)-2-{2-[(2,2-difluoroethyl)(methyl)amino]-2-oxoethyl}pyrazolo[1,5-a]pyridine-4-carboxamide]
9 | ≤ 2000 | O=C(NCC(F)F)c1cc2c(C(=O)NCC34CC5CC(CC(C5)C3)C4)cccn2n1 [Compound 63, 4-N-(adamantan-1-ylmethyl)-2-N-(2,2-difluoroethyl)pyrazolo [1,5-a]pyridine-2,4-dicarboxamide]
10 | ≤ 2000 | CN(Cc1cnn(C)c1)C(=O)c1cc2c(C(=O)NCC34CC5CC(CC(C5)C3)C4)cccn2n1 [Compound 49, 4-N-(adamantan-1-ylmethyl)-2-N-methyl-2-N-[(1-methyl-1H-pyrazol-4-yl)methyl]pyrazolo[1,5-a]pyridine-2,4-dicarboxamide]
11 | ≤ 2000 | O=C(CC12CC3CC(CC(C3)C1)C2)Nc1cccn2nc(C(=O)N3CCOCC3)cc12 [Compound 96, 2-adamantan-1-yl-N-[2-(morpholin-4-ylcarbonyl)pyrazolo [1,5-a]pyridin-4-yl]acetamide]
12 | ≤ 2000 | CN(CC(F)(F)F)C(=O)c1cc2c(C(=O)NCC34CC5CC(CC(C5)C3)C4)cccn2n1 [Compound 76, 4-N-(adamantan-1-ylmethyl)-2-N-methyl-2-N-(2,2,2-trifluoroethyl)pyrazolo [1,5-a]pyridine-2,4-dicarboxamide]
13 | ≤ 2000 | CN(CC(F)(F)F)C(=O)Cc1cc2c(C(=O)NCC34CC5CC(CC(C5)C3)C4)cccn2n1 [Compound 79, N-(adamantan-1-ylmethyl)-2-{2-[methyl(2,2,2-trifluoroethyl)amino]-2-oxoethyl}pyrazolo[1,5-a]pyridine-4-carboxamide]
14 | ≤ 2000 | CN(Cc1cccc(F)c1)C(=O)c1cc2c(C(=O)NCC34CC5CC(CC(C5)C3)C4)cccn2n1 [Compound 66, 4-N-(adamantan-1-ylmethyl)-2-N-(3-fluorobenzyl)-2-N-methylpyrazolo[1,5-a]pyridine-2,4-dicarboxamide]
15 | ≤ 2000 | CN(C(=O)c1cc2c(C(=O)NCC34CC5CC(CC(C5)C3)C4)cccn2n1)C1CCOCC1 [Compound 37, 4-N-(adamantan-1-ylmethyl)-2-N-methyl-2-N-(tetrahydro-2H-pyran-4-yl)pyrazolo[1,5-a]pyridine-2,4-dicarboxamide]
16 | ≤ 2000 | CN(C)[C@@H]1CCN(C(=O)c2cc3c(C(=O)NCC45CC6CC(CC(C6)C4)C5)cccn3n2)C1 [Compound 27, N-(adamantan-1-ylmethyl)-2-{[(3R)-3-(dimethylamino)pyrrolidin-1-yl]carbonyl}pyrazolo [1,5-a]pyridine-4-carboxamide]
17 | ≤ 2000 | COCCNC(=O)c1cc2c(C(=O)NCC34CC5CC(CC(C5)C3)C4)cccn2n1 [Compound 42, 4-N-(adamantan-1-ylmethyl)-2-N-(2-methoxyethyl)pyrazolo [1,5-a]pyridine-2,4-dicarboxamide]
18 | ≤ 2000 | O=C(NCC12CC3CC(CC(C3)C1)C2)c1cccn2nc(CC(=O)N3CCOCC3)cc12 [Compound 25, N-(adamantan-1-ylmethyl)-2-(2-morpholin-4-yl-2-oxoethyl)pyrazolo[1,5-a]pyridine-4-carboxamide]
19 | ≤ 2000 | CN(Cc1cc2c(C(=O)NCC34CC5CC(CC(C5)C3)C4)cccn2n1)Cc1ccccc1F [Compound 68, N-(adamantan-1-ylmethyl)-2-{[(2-fluorobenzyl)(methyl)amino]methyl}pyrazolo [1,5-a]pyridine-4-carboxamide]
20 | ≤ 2000 | CC(C)CC(CNC(=O)c1cccn2nc(C(=O)N3CCOCC3)cc12)c1ccc(C(F)(F)F)cc1 (stereo not shown) [Compound 87, N-{4-methyl-2-[4-(trifluoromethyl)phenyl]pentyl}-2-(morpholin-4-ylcarbonyl)pyrazolo [1,5-a]pyridine-4-carboxamide]
21 | ≤ 2000 | N[C@@H]1CCN(C(=O)c2cc3c(C(=O)NCC4(c5ccc(Cl)cc5)CCCCC4)cccn3n2)C1 [Compound 90, 2-{[(3R)-3-aminopyrrolidin-1-yl]carbonyl}-N-{[1-(4-chlorophenyl)cyclohex-yl]methyl}pyrazolo[1,5-a]pyridine-4-carboxamide]
22 | ≤ 2000 | Cn1ncc2c1CCN(C(=O)c1cc3c(C(=O)NCC45CC6CC(CC(C6)C4)C5)cccn3n1)C2 [Compound 34, N-(adamantan-1-ylmethyl)-2-[(1-methyl-1,4,6,7-tetrahydro-5H-pyrazolo[4,3-c]pyridin-5-yl)carbonyl]pyrazolo [1,5-a]pyridine-4-carboxamide]
23 | ≤ 2000 | O=C1CC2(CCN(C(=O)c3cc4c(C(=O)NCC56CC7CC(CC(C7)C5)C6)cccn4n3)CC2)CN1 [Compound 40, N-(adamantan-1-ylmethyl)-2-[(3-oxo-2,8-diazaspiro[4.5]dec-8-yl)carbonyl]pyrazolo [1,5-a]pyridine-4-carboxamide]
24 | ≤ 2000 | O=C(O)CC(c1ccccc1)c1cc2c(C(=O)NCC34CC5CC(CC(C5)C3)C4)cccn2n1 (stereo not shown) [Compound 106, 3-{4-[(adamantan-1-ylmethyl)carbamoyl]pyrazolo[1,5-a]pyridin-2-yl}-3-phenylpropanoic acid]

Row | Compound | IC50 [nM]
25 | 2-{[(3R)-3- aminopyrrolidin-1- yl]carbonyl}-N-[4- methyl-2-(4- methylphenyl)pentyl] pyrazolo[1,5-a]pyridine- 4-carboxamide [Compound 73] | ≤ 2000
